Data: publication PMC9227944, “Simultaneous Spray Drying for Combination Dry Powder Inhaler Formulations” (Pharmaceutics, 2022)
Converted amounts (≈) assume the structure as drawn.

Tests used:
human recombinant VEGF = target: T1, human recombinant VEGF (Homo sapiens, UniProt P15692); experiment: VEGF binding competitive ELISA assay; conditions: compared with BEV stock positive control
T1 construct: purchased R&D Systems
T1 sequence (P15692 1-191 isoform P15692-4): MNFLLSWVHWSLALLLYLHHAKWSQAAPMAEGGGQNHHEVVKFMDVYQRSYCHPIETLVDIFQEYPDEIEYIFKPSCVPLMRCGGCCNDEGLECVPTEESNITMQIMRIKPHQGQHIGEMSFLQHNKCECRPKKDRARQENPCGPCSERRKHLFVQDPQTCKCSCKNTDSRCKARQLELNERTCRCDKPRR
Procedure: Spray-dried powders or as-received API were reconstituted to a 4 mg/mL active in the buffered saline and allowed to dissolve for 60 min. […] Standards were prepared according to the kit protocol.
After incubation, 50 µL of the assay diluent was added to each of the wells of the supplied plate. A total of 200 µL each of the sample (in triplicate) and standards were added to respective wells and incubated for 2 h at ambient temperature. The plate was washed three times with 400 µL of the kit’s wash buffer, then 200 µL of the VEGF-conjugate was added. The plate was incubated for another 2 h, then washed again three times, as previously. A 1:1 mixture of the kit’s color reagent A and B were mixed, then 200 µL was added to each well. After a 30 min incubation at ambient temperature, 50 µL of stop solution was added to each well. The absorbances were read on an M5e plate reader (Molecular Devices, San Jose, CA, USA) using a 450 nm detection wavelength and 540 nm as the blank wavelength for baseline correction. The quantified concentration of unbound VEGF in pg/mL was reported. All samples were analyzed in triplicate.
Briefly, reconstituted simul-spray powders were incubated with VEGF protein in the assay buffer. Next, the quantity of unbound VEGF in the solution was quantified by a commercially available VEGF ELISA assay kit.

[1] = ligand exchange; cited from earlier work
[2] = Chemical stability in solution; format: physicochemical; conditions: bevacizumab and cisplatin in the same aqueous solution
[3] = Equilibrium solubility of API and excipients in spray solvents (TGA of saturated supernatant)
Procedure: The solutions were centrifuged to remove excess solids. A total of 50 µL of the supernatant was pipetted into an aluminum pan and placed into a Thermogravimetric Analyzer (Discovery TGA, TA Instruments, New Castle, DE, USA). The sample was heated to 130 °C at a ramp rate of 50 °C/min and then held isothermal for 10 min to allow all of the solvent to evaporate. The final mass of the sample (of the known 50 µL volume) was recorded and used to determine the solubility in mg/mL. Samples were measured in triplicate.
Solubility screening was performed on the three small molecule APIs and the L-leucine excipient in water, 90/10 methanol/water and 80/20 ethanol/water by weight. These solvent ratios were chosen to maximize the solubility of L-leucine and API. Additional details on solubility and formulation selection can be found in the Supplementary Information.

[4] = water, thermodynamic from solid, Solubility, mg/mL in Water
[5] = organic solvent or mixture, thermodynamic from solid, Solubility, mg/mL in 90/10 Methanol/Water

VEGF inhibition (in words) (human recombinant VEGF)	solubility ([3]; 80/20 ethanol/water by weight, organic solvent or mixture, thermodynamic from solid, Solubility, mg/mL in 80/20 Ethanol/Water, 80/20 ethanol/water by mass) [µg/mL]	solubility ([3]; 90/10 methanol/water by weight, organic solvent or mixture, thermodynamic from solid, Solubility, mg/mL in 90/10 Methanol/Water, 90/10 methanol/water by mass) [µg/mL]	solubility ([3]; water, Solubility in water at neutral pH, water at neutral pH) [µg/mL]	solubility [3, 4] [µg/mL]	Solubility, mg/mL in 80/20 Ethanol/Water [3] [mg/mL]	solubility ([3]; organic solvent or mixture, thermodynamic from solid, Solubility, mg/mL in 80/20 Ethanol/Water) [µg/mL]	solubility [3, 5] [µg/mL]	Solubility in water at neutral pH [3]	Compound	Chemical stability in aqueous solution [1]	Chemical stability when co-dissolved [2]
do not inhibit VEGF measurably	< 1000	25000 (≈ 63.5 mM)	< 100	< 1000	–	–	–	–	C#Cc1cccc(Nc2ncnc3cc(OCCOC)c(OCCOC)cc23)c1 [ERL, erlotinib]	–	–
–	–	–	–	21000 (≈ 160 mM)	2.0 (≈ 15.2 mM)	1700 (≈ 13 mM)	2500 (≈ 19.1 mM)	–	CC(C)C[C@H](N)C(=O)O [L-Leucine, L-leucine]	–	–
do not inhibit VEGF measurably	–	–	–	< 1000	–	–	< 1000	sparingly soluble	CC(=O)O[C@H]1C(=O)[C@@]2(C)[C@H]([C@H](OC(=O)c3ccccc3)[C@]3(O)C[C@H](OC(=O)[C@H](O)[C@@H](NC(=O)c4ccccc4)c4ccccc4)C(C)=C1C3(C)C)[C@]1(OC(C)=O)CO[C@@H]1C[C@@H]2O [PTX, paclitaxel]	–	–

Compound	VEGF inhibition (in words) (human recombinant VEGF)	solubility ([3]; 80/20 ethanol/water by weight, organic solvent or mixture, thermodynamic from solid, Solubility, mg/mL in 80/20 Ethanol/Water, 80/20 ethanol/water by mass) [µg/mL]	solubility ([3]; 90/10 methanol/water by weight, organic solvent or mixture, thermodynamic from solid, Solubility, mg/mL in 90/10 Methanol/Water, 90/10 methanol/water by mass) [µg/mL]	solubility ([3]; water, Solubility in water at neutral pH, water at neutral pH) [µg/mL]	solubility [3, 4] [µg/mL]	Solubility, mg/mL in 80/20 Ethanol/Water [3] [mg/mL]	solubility ([3]; organic solvent or mixture, thermodynamic from solid, Solubility, mg/mL in 80/20 Ethanol/Water) [µg/mL]	solubility [3, 5] [µg/mL]	Solubility in water at neutral pH [3]	Chemical stability in aqueous solution [1]	Chemical stability when co-dissolved [2]
N.N.[Cl][Pt][Cl] [CP, cisplatin]	do not inhibit VEGF measurably	–	–	–	–	–	–	–	–	not chemically stable in an aqueous solution for longer than a few hours	not chemically stable when co-dissolved in the same solution
